Data: ChEMBL document CHEMBL1121780, “Synthesis and antiarrhythmic activity of new benzofuran derivatives” (J Med Chem, 1981)
Calls of active or inactive are those of the source. The calls are words filed in the database; no cut-off is given here.

Assays:
[1] = organism: Canis familiaris; assay: Duration for the sinus rhythm recovery was measured; assay type: functional, Canis lupus familiaris
[2] = test system: Canis familiaris; assay: Activity against harris coronary ligation induced ventricular arrhythmia was measured as percent of initial sinus complexes after dose 2 mg/kg iv; assay type: functional, Canis lupus familiaris, Cardiac ventricle
[3] = test system: Canis familiaris; assay: Activity against harris coronary ligation induced ventricular arrhythmia was measured as percent of final sinus complexes after dose 2 mg/kg iv; assay type: functional, Canis lupus familiaris, Cardiac ventricle
[4] = Toxicity estimated in mouse as LD50 by intravenous administration; assay type: organism-based; settings: in vivo
[5] = organism: Canis familiaris; assay: Duration for the antiarrhythmic activity was measured; assay type: functional, Canis lupus familiaris, Heart
[6] = test system: Canis familiaris; assay: Activity against ouabain-induced ventricular arrhythmia was measured as percent of sinus rhythm recovery at dose of 1 mg/kg iv; assay type: functional, Canis lupus familiaris, Cardiac ventricle
[7] = organism: Canis familiaris; assay: Activity against ouabain-induced ventricular arrhythmia was measured as percent of sinus rhythm recovery; Inactive; assay type: functional, organism-based; settings: Canis lupus familiaris; Cardiac ventricle
[8] = test system: Canis familiaris; assay: Activity against harris coronary ligation induced ventricular arrhythmia was measured as percent of final sinus complexes after dose 2 mg/kg, iv; assay type: functional, Canis lupus familiaris, Cardiac ventricle
[9] = test system: Canis familiaris; assay: Activity against harris coronary ligation induced ventricular arrhythmia was measured as percent of initial sinus complexes after dose 12.5 mg/kg, po; assay type: functional, Canis lupus familiaris, Cardiac ventricle
[10] = test system: Canis familiaris; assay: Activity against ouabain-induced ventricular arrhythmia was measured as percent of sinus rhythm recovery at dose of 2 mg/kg iv; assay type: functional, Canis lupus familiaris, Cardiac ventricle
[11] = test system: Canis familiaris; assay: Activity against harris coronary ligation induced ventricular arrhythmia was measured as percent of final sinus complexes after dose 12.5 mg/kg, po; assay type: functional, Canis lupus familiaris, Cardiac ventricle
[12] = test system: Canis familiaris; assay: Activity against ouabain-induced ventricular arrhythmia was measured as percent of sinus rhythm recovery at dose of 4 mg/kg iv; assay type: functional, Canis lupus familiaris, Cardiac ventricle
[13] = test system: Canis familiaris; assay: Activity against harris coronary ligation induced ventricular arrhythmia was measured as percent of initial sinus complexes after dose 2 mg/kg, iv; Inactive; assay type: functional, organism-based; design: dose 2 mg/kg; settings: Canis lupus familiaris; Cardiac ventricle; at 2 mg/kg
[14] = test system: Canis familiaris; assay: Activity against harris coronary ligation induced ventricular arrhythmia was measured as percent of final sinus complexes after dose 5 mg/kg, iv; assay type: functional, Canis lupus familiaris, Cardiac ventricle
[15] = test system: Canis familiaris; assay: Activity against harris coronary ligation induced ventricular arrhythmia was measured as percent of initial sinus complexes after dose 5 mg/kg, iv; assay type: functional, Canis lupus familiaris, Cardiac ventricle
[16] = organism: Canis familiaris; assay: Activity against ouabain-induced ventricular arrhythmia was measured as percent of sinus rhythm recovery; Estimated as too toxic to be tested; assay type: functional, organism-based; settings: Canis lupus familiaris; Cardiac ventricle
[17] = test system: Canis familiaris; assay: Activity against harris coronary ligation induced ventricular arrhythmia was measured as percent of initial sinus complexes after dose 1 mg/kg iv; Inactive; assay type: organism-based, Canis lupus familiaris, Cardiac ventricle; design: dose 1 mg/kg; settings: dog, in vivo
[18] = test system: Canis familiaris; assay: Activity against harris coronary ligation induced ventricular arrhythmia was measured as percent of initial sinus complexes after dose 4 mg/kg iv; Inactive; assay type: functional, organism-based; design: dose 4 mg/kg; settings: Canis lupus familiaris; Cardiac ventricle; at 4 mg/kg

| Compound | Duration [1] [min] | LD50 [4] [mg/kg] | SRR [7] | further results |
| --- | --- | --- | --- | --- |
| COc1c(NC(C)=O)c(OCCN2CCCCCCC2)c(OC)c2occc12 | >50 | 21 | – | ISC [2]: 5%; FSC [3]: 17%; Duration [5]: <30 min; SRR [6]: 100% |
| COc1c(NC(=O)C(C)C)c(OCCN2CCCCC2)c(OC)c2occc12 | – | 78 | inactive | – |
| CNC(=O)Nc1c(OCCN2CCCCCC2)c(OC)c2occc2c1OC | 95 | 31 | – | FSC [8]: 78%; ISC [9]: 5%; SRR [10]: 100%; ISC [2]: 3%; FSC [11]: 90% |
| COc1c(NC(C)=O)c(OCCN2CCCCCC2)c(OC)c2occc12 | – | 33 | inactive | – |
| COc1c(NC(=O)N(C)C)c(OCCN2CCCCC2)c(OC)c2occc12 | 60 | 25 | – | SRR [12]: 50%; ISC [2]: 22%; FSC [3]: 52%; Duration [5]: 40 min |
| COc1c(NC(C)=O)c(OCCCN2CCCCC2)c(OC)c2occc12 | – | 40.5 | inactive | – |
| CNCCOc1c(NC(C)=O)c(OC)c2ccoc2c1OC | – | 96 | inactive | – |
| CNC(=O)N(C)c1c(OCCN2CCCCC2)c(OC)c2occc2c1OC | <10 | 66 | – | SRR [10]: 100% |
| COc1c(NC(C)=O)c(OCCN(C)C)c(OC)c2occc12 | – | 138 | inactive | – |
| CNC(=O)Nc1c(OC)c(OC)c2occc2c1OCCN1CCCCC1 | – | 200 | inactive | – |
| COc1c(NC(=O)NC2CCCCC2)c(OCCN2CCCCC2)c(OC)c2occc12 | – | 42 | inactive | – |
| CNC(=O)Nc1cc2ccoc2cc1OCCN1CCCCC1 | – | 67 | inactive | – |
| CNC(=O)Nc1c(OCC(C)N2CCCCC2)c(OC)c2occc2c1OC (stereo not given) | 60 | 36 | – | SRR [10]: 100% |
| COc1c(NC(=O)Nc2ccccc2)c(OCCN2CCCCC2)c(OC)c2occc12 | – | 9 | inactive | – |
| CNC(=O)Nc1c(OCCN2CCCCCCC2)c(OC)c2occc2c1OC | 30 | 14 | – | SRR [10]: 100%; ISC [13]: inactive |
| CNC(=O)Nc1c(OCCCN2CCCC2)c(OC)c2occc2c1OC | >60 | 32 | – | FSC [14]: 9%; SRR [12]: 100%; ISC [15]: 0%; Duration [5]: 20 min |
| COc1c(NC(C)=O)c(OCCN2CCOCC2)c(OC)c2occc12 | – | 200 | inactive | – |
| CCCCNC(=O)Nc1c(OCCN2CCCCC2)c(OC)c2occc2c1OC | – | 22 | inactive | – |
| CCOC(=O)Nc1c(OCCN2CCCCC2)c(OC)c2occc2c1OC | – | 13 | inactive | – |
| COc1c(NC(C)=O)c(OCCNC2CCCCC2)c(OC)c2occc12 | <30 | 11.5 | – | SRR [6]: 50% |
| CNS(=O)(=O)Nc1c(OCCN2CCCCC2)c(OC)c2occc2c1OC | – | 39 | inactive | – |
| COC(=O)Nc1c(OCCN2CCCCC2)c(OC)c2occc2c1OC | – | 15 | inactive | – |
| CNC(=O)Nc1c(OCCCN(C)C)c(OC)c2occc2c1OC | – | 44 | inactive | – |
| CNC(=O)Nc1c(OC(C)CN2CCCCC2)c(OC)c2occc2c1OC (stereo not given) | 15 | 23 | – | SRR [6]: 100% |
| CCOc1c(NC(=O)NC)c(OCCN2CCCCC2)c(OC)c2occc12 | – | 10 | – | SRR [16]: inactive |
| CCNC(=O)Nc1c(OCCN2CCCCC2)c(OC)c2occc2c1OC | 120 | 28 | – | SRR [10]: 100%; ISC [2]: 25%; FSC [3]: 90%; Duration [5]: <30 min |

| Compound | Duration [1] [min] | LD50 [4] [mg/kg] | SRR [7] | further results |
| --- | --- | --- | --- | --- |
| COc1c(NC(=O)NC(C)C)c(OCCN2CCCCC2)c(OC)c2occc12 | – | 25 | inactive | – |
| CCNCCOc1c(NC(C)=O)c(OC)c2ccoc2c1OC | – | 68 | inactive | – |
| CCN(CC)CCOc1c(NC(C)=O)c(OC)c2ccoc2c1OC | – | 85 | inactive | – |
| COc1c(NC(=O)NC(C)(C)C)c(OCCN2CCCCC2)c(OC)c2occc12 | – | 11.5 | inactive | – |
| CNC(=O)Nc1c(OCCCN2CCCCC2)c(OC)c2occc2c1OC | >100 | 42.5 | – | SRR [10]: 100%; ISC [13]: inactive |
| COc1c(NC=O)c(OCCN2CCCCC2)c(OC)c2occc12 | 10 | 46 | – | SRR [12]: 100% |
| COc1c(NC(=O)C(F)(F)F)c(OCCN2CCCCC2)c(OC)c2occc12 | – | 22 | inactive | – |
| CNCCOc1c(NC(=O)NC)c(OC)c2ccoc2c1OC | – | 67 | inactive | – |
| CNC(=O)Nc1c(OCCN2CCCCC2)c(OC)c2occc2c1OC(C)C | – | 11 | inactive | – |
| COc1c(NC(=O)c2ccccc2)c(OCCN2CCCCC2)c(OC)c2occc12 | – | 2.5 | – | SRR [16]: Estimated as too toxic to be tested |
| COc1c(N)c(OCCN2CCCCC2)c(OC)c2occc12 | – | 21 | inactive | – |
| COc1c(NC(C)=O)c(OCCN2CCCC2)c(OC)c2occc12 | <30 | 80 | – | SRR [12]: 33% |
| CN/C(S)=N/c1c(OCCN2CCCCC2)c(OC)c2occc2c1OC | – | 17 | inactive | – |
| COc1c(NC(N)=O)c(OCCN2CCCCC2)c(OC)c2occc12 | – | 40 | inactive | – |
| CNC(=O)Nc1c(OCCN2CCOCC2)c(OC)c2occc2c1OC | – | 100 | inactive | – |
| COc1c(NC(=O)OC2CCCCC2)c(OCCN2CCCCC2)c(OC)c2occc12 | – | 15 | inactive | – |
| CNC(=O)Nc1c(OCCCCN2CCCCC2)c(OC)c2occc2c1OC | <30 | 68 | – | SRR [12]: 100% |
| CCN(CC)CCCOc1c(NC(=O)NC)c(OC)c2ccoc2c1OC | 15 | 76 | – | SRR [10]: 100% |
| CNC(=O)Nc1c(OCCNC2CCCCC2)c(OC)c2occc2c1OC | 120 | 9.5 | – | ISC [17]: Not Active; SRR [6]: 100% |
| CNC(=O)Nc1c(OCCCCN2CCCC2)c(OC)c2occc2c1OC | – | 36 | inactive | – |
| CCCNC(=O)Nc1c(OCCN2CCCCC2)c(OC)c2occc2c1OC | – | 18.5 | inactive | – |
| CNC(=O)Nc1c(OC)ccc(OC)c1OCCN1CCCCC1 | – | 135 | inactive | – |
| CNC(=O)Nc1c(OCCNC(C)C)c(OC)c2occc2c1OC | <30 | 49 | – | SRR [12]: 100% |
| COc1c(NC(=O)C2CCCCC2)c(OCCN2CCCCC2)c(OC)c2occc12 | – | 7 | – | SRR [16]: Estimated as too toxic to be tested |
| CCN(CC)CCOc1c(NC(=O)NC)c(OC)c2ccoc2c1OC | >120 | 74 | – | ISC [18]: inactive; SRR [10]: 100% |
